Tests used:
Sm.5HTR = Sm.5HTR (Schistosoma mansoni, UniProt A0A173FEI8); experiment: cell-based
Experimental: HEK293 cells (ATCC CRL-1573.3) were cultured in growth media consisting of DMEM supplemented with GlutaMAX (Gibco cat #10566016)+10% heat inactivated fetal bovine serum and penicillin-streptomycin (100 units/mL, ThermoFisher). Stable cell lines for the pGloSensor-22F cAMP Plasmid (Promega) and schistosome 5HTRs in pcDNA3.1(−) were selected with hygromycin (200 μg/mL) and G418 (400 μg/mL). The correct identity of each stably expressed sequence was verified by isolating total RNA from each stable line (TRIzol Reagent, Ambion) and amplifying the sequence of interest with gene specific primers flanking the 5′ and 3′ regions of the cds (SuperScript® III One-Step RT-PCR System, Invitrogen). PCR products were ligated into a TA cloning vector (pGEM-T Easy, Promega) and sequenced.
HEK293 lines stably expressing both the 22F cAMP sensor and Sm.5HTR were cultured in growth media supplemented with 10% dialyzed FRS. For cAMP assays in 96 well format, cells cultured in T-75 flasks were trypsinized (TrypLE Express, Gibco) and plated in solid white 96 well plates (Costar cat #3917) the day prior to assay at a density of 2.5×10^4 cells/well. The following day media was removed and replaced with assay buffer consisting of HBSS buffered with HEPES (20 mM, pH 7.4)+BSA (0.1% w/v) and D-luciferin sodium salt (1 mg/mL, Gold Biotechnology). Plates were equilibrated at room temperature for 1 hour, at which point 3-Isobutyl-1-methylxanthine (IBMX 200 μM, Sigma Aldrich) was added. Plates were equilibrated a further 30 minutes prior to test compound addition. […] Readings performed in 384 well format were modified so that cells were assayed in suspension. Cells were grown to 70% confluence in T-75 flasks, trypsinized and pelleted (300 RCF×5 minutes). Media was removed and cells were resuspended in 25 mL assay buffer supplemented with IBMX (200 μM). A 96 channel semi-automated pipet (Eppendorf epMotion 96) delivered 55 μL of cell suspension per well (5000 cells/well) into solid white 384 plates (Corning 3574).

adult schistosomes = experiment: Egg laying assay, adult schistosome pairs in vitro; assay type: cell-based, Schistosoma mansoni
Source text: Female Swiss Webster mice infected with S. mansoni cerceria (NMRI strain) were sacrificed 49 days post infection by CO2 euthanasia. Adult schistosomes were recovered by perfusion with a solution of 0.85% sodium chloride+0.75% sodium citrate and dissection of the mesenteric vasculature. Harvested schistosomes were washed in RPMI 1640 Medium with GlutaMAX+5% heat inactivated FBS (Gibco) and Penicillin-Streptomycin (final concentration 100 units/mL, ThermoFisher cat #15140122).
For egg laying assays, adult schistosomes were transferred to 24 well plates the day after harvesting from mice (5 worm pairs in 2 mL media per well). Eggs were counted under a stereomicroscope daily, after which worms were transferred to a new well with fresh drug containing media. Egg counts were recorded for five days, and data processed as the mean number of eggs laid per worm pair/day. Measurements of egg dimensions were quantified using the “analyze>measure” function in ImageJ to record the length and width of individual eggs.

S. mansoni = experiment: Curative efficacy against schistosome infection in mice; assay type: in vivo, Schistosoma mansoni
Experimental: Assays testing the curative efficacy of compounds against schistosome infection were performed on mice 6 weeks after exposure to cerceria. Drugs were dosed as follows. Ergotamine (95 mg/kg) was solubilized in 50 μL DMSO and diluted in 200 μL trappsol-saline and delivered by intraperitoneal injection twice a day for one week. Praziquantel (50 mg/kg) was similarly solubilized and injected intraperitoneally once a day for one week. The negative control cohort was given twice daily injections of DMSO (50 μL) added to 200 μL trappsol-saline solution. Mice were weighed and euthanized at 49 days post infection. Worms were harvested and counted as in the hepatic shift assay. Spleen and livers were weighed, and a segment of intestine was excised from the most distal region of the rectum to 10 cm above the cecum. The small and large intestines were separated by cutting immediately above and below the cecum. Each was cut lengthwise to expose the lumen and thoroughly washed in NaCl (1.2%) to remove excrement. Intestines were laid flat with the intestinal mucosa facing upwards and clamped between two glass plates to allow visual inspection of eggs using a stereo microscope.
Mice were injected with vehicle control (dmso), the current frontline anthelmintic (praziquantel) or ergotamine twice daily for one week at starting 42 days post infection.
All animals were sacrificed 49 days post infection, and worms were harvested by dissection of the mesenteric vasculature, portal vein and liver. […] Schistosomes lay large numbers of eggs within the host mesenteric system, and these progress through stages of development over approximately 5 days which can be scored looking at samples of the intestinal mucosa (Pellegrino et al., 1965). Therefore, it is possible to visually determine whether drug treatment has arrested parasite egg laying by observing a lack of developing eggs. Sections of both the large and small intestines were examined and eggs were manually counted and scored according to developmental stage (representative stages of embryo development shown in FIG. 20H-I, top).

[1] = infected mice, ergotamine 95 mg/kg i.p. twice a day, one week

Chain of Sm.5HTR (A0A173FEI8 entry or part of it): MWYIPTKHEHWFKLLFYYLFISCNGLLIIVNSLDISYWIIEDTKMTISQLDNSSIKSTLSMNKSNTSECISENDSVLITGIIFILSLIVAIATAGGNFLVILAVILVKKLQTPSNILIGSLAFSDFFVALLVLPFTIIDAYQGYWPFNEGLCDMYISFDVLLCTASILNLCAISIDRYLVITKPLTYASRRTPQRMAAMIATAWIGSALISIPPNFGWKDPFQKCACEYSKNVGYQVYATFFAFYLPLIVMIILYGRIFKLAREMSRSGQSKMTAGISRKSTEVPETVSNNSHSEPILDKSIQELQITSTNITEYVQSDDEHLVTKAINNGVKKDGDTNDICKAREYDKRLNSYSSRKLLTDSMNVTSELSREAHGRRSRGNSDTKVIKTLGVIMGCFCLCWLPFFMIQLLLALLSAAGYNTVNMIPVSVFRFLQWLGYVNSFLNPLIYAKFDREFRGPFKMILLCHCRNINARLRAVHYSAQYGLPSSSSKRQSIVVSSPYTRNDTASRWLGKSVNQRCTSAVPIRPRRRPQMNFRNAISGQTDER

## CN1C[C@H](C(=O)N[C@]2(C)O[C@@]3(O)[C@@H]4CCCN4C(=O)[C@H](Cc4ccccc4)N3C2=O)C=C2c3cccc4[nH]cc(c34)C[C@H]21 [ergotamine]
Sm.5HTR
  EC50: 0.043 ± 0.013 µM
Sm.5HTR; HEK293, read-out: Sm.5HTR Emax
  Emax: 95 ± 5%
Adult schistosomes; FIGS. 19H&I, ergotamine 1 μM
  reduction in size of eggs: 43%
Adult schistosomes; serotonin 100 μM, forskolin 100 μM, LSD 10 μM, nuciferine 10 μM, ergotamine 5 μM (FIG. 19F), eggs per worm pair/day over five days
  decrease of egg laying: 54%
S. mansoni; [1]
  increase of liver relative to uninfected littermates: 15±34%
  increase of spleen relative to uninfected littermates: 151±80%
S. mansoni; mice, ergotamine 95 mg/kg i.p. twice a day for one week from 42 days post infection, sacrificed day 49
  reduction of worm burden relative to controls: 65±10%
S. mansoni; mice, ergotamine 95 mg/kg twice a day, praziquantel 50 mg/kg once a day, i.p., one week, versus vehicle control
  decrease in intestinal egg counts: 96%

— US10426772B2, “Use of ergot alkaloids as an anthelmintic agent” (priority 2016, dated 2019)
